Values of other authors, collected in patent US20190090531A1, “TOBACCO FILLING FOR NON-COMBUSTION-TYPE HEATING SMOKING ARTICLE” (JAPAN TOBACCO INC., priority 2016, published 2019).
Read-outs that look alike come from different tables or passages of the source.

[1] = Table 1, in water at normal temperature (25° C.)

## CCCCCCCCCC(=O)O [Decanoic acid]
[1]
  Acid dissociation constant pKa1: 4.90

## CCCCCCCCCCCCCCCCCCCCC(=O)O [Heneicosanoic acid]
[1]
  Acid dissociation constant pKa1: ≈5.00

## O=C1O[C@H]([C@H](O)CO)C(O)=C1O [Isoascorbic acid]
[1]
  Acid dissociation constant pKa1: 4.13
Table 2, in water at 25° C.
  Acid dissociation constant pKa1: 4.13

## CCCCCCCCCCCC(=O)O [Lauric acid]
[1]
  Acid dissociation constant pKa1: 5.20

## CC(=O)CCC(=O)O [Levulinic acid]
[1]
  Acid dissociation constant pKa1: 4.44

## CCCCCCCCCCCCCCCCCCCCCCCC(=O)O [Lignoceric acid]
[1]
  Acid dissociation constant pKa1: ≈5.00
Table 2, in water at 25° C.
  Acid dissociation constant pKa1: ≈5.00

## CC/C=C\C/C=C\C/C=C\CCCCCCCC(=O)O [Linolenic acid]
[1]
  Acid dissociation constant pKa1: ≈5.00

## CCCCCCCCCCCCCC(=O)O [Myristic acid]
[1]
  Acid dissociation constant pKa1: ≈5.00

## CCCCCCCCCCCCCCCCCCC(=O)O [Nonadecanoic acid]
[1]
  Acid dissociation constant pKa1: ≈5.00
Table 2, in water at 25° C.
  Acid dissociation constant pKa1: ≈5.00

## CCCCCCCCCCCCCCCCCCCCCCCCCCCC(=O)O [Octacosanoic acid]
[1]
  Acid dissociation constant pKa1: ≈5.00

## CCCCCCCCCCCCCCCC(=O)O [Palmitic acid]
[1]
  Acid dissociation constant pKa1: ≈5.00

## CC(=O)C(=O)O [Pyruvic acid]
[1]
  Acid dissociation constant pKa1: 2.50

## C/C=C/C=C/C(=O)O [Sorbic acid]
[1]
  Acid dissociation constant pKa1: 4.76

## CCCCCCCCCCCCCCCCCC(=O)O [Stearic acid]
[1]
  Acid dissociation constant pKa1: ≈5.00
